From patent US20260116910A1, “POLYCYCLIC COMPOUNDS AND METHODS THEREOF” (HEPAITECH (BEIJING) BIOPHARMA TECHNOLOGY CO., LTD., priority 2021, published 2026)

Assays:
human FXR (NR1H4) = target: T1, human FXR (NR1H4) (Homo sapiens, UniProt Q96RI1); experiment: Human FXR (NR1H4) agonist assessment, FXRE-NanoLuc reporter in HEK293T cells; assay type: cell-based; details: FXR activation, HEK293T FXRE-NanoLuc reporter, 24 hr; for EC50: read-out: EC50
T1 sequence (Q96RI1 1-476 isoform Q96RI1-1): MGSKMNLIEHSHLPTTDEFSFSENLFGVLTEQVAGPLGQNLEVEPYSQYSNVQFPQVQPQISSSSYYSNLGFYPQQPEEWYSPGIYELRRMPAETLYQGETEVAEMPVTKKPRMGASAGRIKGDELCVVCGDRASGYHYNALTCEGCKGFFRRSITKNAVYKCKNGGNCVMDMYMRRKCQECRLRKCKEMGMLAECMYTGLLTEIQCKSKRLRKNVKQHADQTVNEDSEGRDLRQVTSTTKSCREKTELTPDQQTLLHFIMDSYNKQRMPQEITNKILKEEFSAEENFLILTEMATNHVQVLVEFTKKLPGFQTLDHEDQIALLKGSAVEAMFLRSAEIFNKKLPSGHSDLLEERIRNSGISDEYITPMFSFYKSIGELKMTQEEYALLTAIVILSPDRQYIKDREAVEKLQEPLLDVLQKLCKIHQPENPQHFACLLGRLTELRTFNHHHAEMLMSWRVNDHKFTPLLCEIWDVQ
Experimental: As those skilled in the art appreciate, various technologies are available for assessment of FXR activation in accordance with the present disclosure. […] Human FXR (NR1H4) agonist assessment (see, e.g., Yu et al. eLife 2019; 8: e48431): HEK293T cells stably expressing human FXR and containing FXR response element (FXRE)-NanoLuc reporter were cultured in DMEM medium supplemented with 10% FBS and 1% PS, at 37° C. in a humidified atmosphere with 5% CO2. Cells were detached by centrifuging (1000 rpm, 3 min). The pellet was re-suspended in medium, and cell density was adjusted to about 1×10^6 cells/mL. 100 μL suspension was seeded to each well of a white-walled, clear-bottom 96-well microplates (cell plate). Cells in microplates were cultured overnight.
In the following day, cells were grown to higher than 95% density in each well. Culture medium was replaced, and compounds were added to the wells. 0.01% DMSO (v/v) served as negative control. Plates were incubated at 37° C. in 5% CO2 for 24 hr.
In the following day, a 10 μL aliquot of cell culture medium was removed from each well and combined with 40 μL culture medium plus […] assay buffer (containing 20 mM of the luciferase substrate coelenterazine). After 5 min incubation, luminescence was measured using an EnVision plate reader (PerkinElmer).
In some embodiments, gradient diluted solutions of several concentrations were used to treat cells and corresponding responses were used to fit sigmoid function and to derive EC50 in Origin.

MRGPRX4 = MRGPRX4 (Homo sapiens, UniProt Q96LA9); experiment: MRGPRX4 activation, Fluo-8 Ca2+ FLIPR assay in HEK293T cells stably expressing MRGPRX4; assay type: cell-based; parameters: key to MRGPRX4 activation, Average / MRGPRX4 activation, Ave.: fluorescence change dF/F0; details: for EC50: MRGPRX4 activation, Ca2+ fluorescence, no activation in tested range reported as III, read-out: Activity (EC50 μM)
Experimental: In some embodiments, cells were cultured in poly-D-Lys coated blacked walled, clear-bottom 96-well microplates. HEK293T cells stably expressing MRGPRX4 were cultured in DMEM medium supplemented with 10% FBS and 1% PS, at 37° C. in a humidified atmosphere with 5% CO2. Cells were detached by centrifuging (1000 rpm, 3 min). The pellet was re-suspended in medium, and cell density was adjusted to about 1×10^6 cells/mL. 100 μL suspension was seeded to each well of a microplates (cell plate). Cells in the microplates were cultured overnight. In the following day, cells were grown to higher than 95% density in each well.
Ca^2+ fluorescent dye loading: Fluo-8 AM (Screen Quest Fluo-8 AM Calcium Assay Kit, AAT Bioquest, cat. #: 21083) was diluted in HHBS buffer and adjusted to 2 μM (dye buffer). Medium in each well was changed into 50 μL dye buffer carefully. After incubation for 40-60 min under room temperature, the dye buffer was changed into 50 μL HHBS buffer.
The concentration of solution should be determined according to the protocol settings and experimental needs (e.g., Log[M]=−4, −5, −6, −7, −8, and −9). Prepare 2× serial dilution series of compounds (at least 75 μL per well).
A fluorescent signal baseline was measured using FLIPR®Tetra for 30 s. Then 50 μL of the chemical solution would be added to the cell plate. The fluorescent signal would be measured for another 150 s.
Activity of each compound was calculated by the fluorescence change (dF/F0). Curves were fitted to obtain EC50 values. In some embodiments, at least 3 repeats were performed to obtain the average values. For assessment of a compound, gradient diluted solutions of different concentrations were used to treat cells and corresponding responses were used to fit sigmoid function and to derive EC50 in Origin. In some embodiments, assessed concentrations were or included about 10^−4, 10^−4.5, 10^−5, 10^−5.5, 10^−6, 10^−6.5, 10^−7, 10^−8, and/or 10^−9 M; for example, in many instances, assessed concentrations included about 10^−5, 10^−6, 10^−7 and 10^−8 M. In some embodiments, assessed concentrations were about 10^−4, 10^−4.5, 10^−5, 10^−5.5, 10^−6, 10^−7, 10^−8, and 10^−9 M. In some embodiments, assessed concentrations were about 10^−4, 10^−5, 10^−6, 10^−7, 10^−8, and 10^−9 M. In some embodiments, assessed concentrations were about 10^−4, 10^−4.5, 10^−5, 10^−5.5, 10^−6, and 10^−7 M. In some embodiments, assessed concentrations were about 2000000, 1000000, 500000, 250000, 125000, 62500, 31250, 15625, 7813, 3906 nM. […] In some embodiments, assessed concentrations were about 30000, 10000, 3333, 1111, 370, 123, 41, 14, 4.6, 1.5 nM.

Chain of MRGPRX4 (Q96LA9 whole entry): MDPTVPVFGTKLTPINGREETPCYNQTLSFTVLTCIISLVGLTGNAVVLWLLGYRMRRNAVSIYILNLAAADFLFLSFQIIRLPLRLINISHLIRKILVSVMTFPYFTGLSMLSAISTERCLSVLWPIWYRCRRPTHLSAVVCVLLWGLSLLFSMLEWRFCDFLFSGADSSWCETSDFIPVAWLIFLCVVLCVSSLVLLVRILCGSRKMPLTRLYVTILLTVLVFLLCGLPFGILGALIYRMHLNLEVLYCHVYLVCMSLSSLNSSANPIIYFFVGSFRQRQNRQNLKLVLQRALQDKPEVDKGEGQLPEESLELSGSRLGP

Structure (SMILES)	Efficacy (maximum measured induction of NanoLuc, normalized to CDCA set as 100%) (human FXR (NR1H4))	EC50 (human FXR (NR1H4))	EC50 (MRGPRX4)	MRGPRX4 activation, Average (MRGPRX4; E3-9, Conc. (Log[M]) −4.0)	MRGPRX4 activation, Average (MRGPRX4; E3-9, Conc. (Log[M]) −4.5)	MRGPRX4 activation, Average (MRGPRX4; E3-9, Conc. (Log[M]) −5.0)	MRGPRX4 activation, Average (MRGPRX4; E3-9, Conc. (Log[M]) −5.4)	MRGPRX4 activation, Average (MRGPRX4; E3-9, Conc. (Log[M]) −5.9)	MRGPRX4 activation, Average (MRGPRX4; E3-9, Conc. (Log[M]) −6.4)	MRGPRX4 activation, Average (MRGPRX4; E3-9, Conc. (Log[M]) −6.9)	MRGPRX4 activation, Average (MRGPRX4; E3-9, Conc. (Log[M]) −7.3)	MRGPRX4 activation, Average (MRGPRX4; E3-9, Conc. (Log[M]) −7.8)	MRGPRX4 activation, Average (MRGPRX4; E3-9, Conc. (Log[M]) −8.3)	MRGPRX4 activation, fluorescence change (dF/F0), Average (MRGPRX4; Conc. (Log[M]) −4.5)	also measured
CC(O)CC[C@@H](C)[C@H]1CC[C@H]2[C@@H]3CC[C@@H]4CCCC[C@]4(C)[C@H]3CC[C@]12C (stereo partly shown) [2-2]	C (100%<efficacy <=300%)	> 10 µM	> 100 µM												
CC[C@H]1[C@@H](O)[C@@H]2[C@H](CC[C@]3(C)[C@@H]([C@H](C)CCNC(=O)C(=O)NS(=O)(=O)c4cc(F)ccc4F)CC[C@@H]23)[C@@]2(C)CCCC[C@@H]12 [8-5]	C (100%<efficacy <=300%)	< 1 µM	> 100 µM	0.030	0.016	0.018	0.018	0.018	0.016	0.020	0.016	0.011	0.011		
CC[C@H]1[C@@H](O)[C@@H]2[C@H](CC[C@]3(C)[C@@H]([C@H](C)CCO)CC[C@@H]23)[C@@]2(C)CCCC[C@@H]12 [2-5]	A (efficacy >400%)	1 to 10 µM	> 100 µM												
CC[C@H]1[C@@H](O)[C@@H]2[C@H](CC[C@]3(C)[C@@H]([C@H](C)CC#N)CC[C@@H]23)[C@@]2(C)CCCC[C@@H]12 [2-4]	C (100%<efficacy <=300%)	> 10 µM	> 100 µM											−0.025	MRGPRX4 activation, fluorescence change (dF/F0), Average (MRGPRX4; Conc. (Log[M]) −4): 0.008; MRGPRX4 activation, fluorescence change (dF/F0), Average (MRGPRX4; Conc. (Log[M]) −5): −0.026; MRGPRX4 activation, fluorescence change (dF/F0), Average (MRGPRX4; Conc. (Log[M]) −5.5): −0.018; MRGPRX4 activation, fluorescence change (dF/F0), Average (MRGPRX4; Conc. (Log[M]) −6): −0.037; MRGPRX4 activation, fluorescence change (dF/F0), Average (MRGPRX4; Conc. (Log[M]) −7): −0.025; MRGPRX4 activation, fluorescence change (dF/F0), Average (MRGPRX4; Conc. (Log[M]) −8): −0.038; MRGPRX4 activation, fluorescence change (dF/F0), Average (MRGPRX4; Conc. (Log[M]) −9): −0.037
CC[C@H]1[C@@H](O)[C@@H]2[C@H](CC[C@]3(C)[C@@H]([C@H](C)CCNC(=O)NS(=O)(=O)N4CC5CC5C4)CC[C@@H]23)[C@@]2(C)CCCC[C@@H]12 (stereo partly shown) [5-12]	C (100%<efficacy <=300%)	1 to 10 µM	> 100 µM												MRGPRX4 activation, Average (MRGPRX4; E3-6-2, 1st of 6 concentration columns (head not in rows shown)): 0.057; MRGPRX4 activation, Average (MRGPRX4; E3-6-2, 3rd of 6 concentration columns (head not in rows shown)): 0.023; MRGPRX4 activation, Average (MRGPRX4; E3-6-2, 6th of 6 concentration columns (head not in rows shown)): 0.013; MRGPRX4 activation, Average (MRGPRX4; E3-6-2, concentration not given): 0.013
CC[C@H]1[C@@H](O)[C@@H]2[C@H](CC[C@]3(C)[C@@H]([C@H](C)CCNC(=O)NS(=O)(=O)c4ccc(C(C)(C)CN)cc4)CC[C@@H]23)[C@@]2(C)CCCC[C@@H]12 [5-18]	B (300%<efficacy <=400%)	< 1 µM	> 100 µM											0.008	MRGPRX4 activation, fluorescence change (dF/F0), Average (MRGPRX4; Conc. (Log[M]) −4.0): 0.018; MRGPRX4 activation, fluorescence change (dF/F0), Average (MRGPRX4; Conc. (Log[M]) −5.0): 0.021; MRGPRX4 activation, fluorescence change (dF/F0), Average (MRGPRX4; Conc. (Log[M]) −5.4): 0.021; MRGPRX4 activation, fluorescence change (dF/F0), Average (MRGPRX4; Conc. (Log[M]) −5.9): 0.021; MRGPRX4 activation, fluorescence change (dF/F0), Average (MRGPRX4; Conc. (Log[M]) −6.4): 0.021; MRGPRX4 activation, fluorescence change (dF/F0), Average (MRGPRX4; Conc. (Log[M]) −6.9): 0.011; MRGPRX4 activation, fluorescence change (dF/F0), Average (MRGPRX4; Conc. (Log[M]) −7.3): 0.018; MRGPRX4 activation, fluorescence change (dF/F0), Average (MRGPRX4; Conc. (Log[M]) −7.8): 0.020; MRGPRX4 activation, fluorescence change (dF/F0), Average (MRGPRX4; Conc. (Log[M]) −8.3): 0.013
CC[C@H]1[C@@H](O)[C@@H]2[C@H](CC[C@]3(C)[C@@H]([C@H](C)CCNC(=O)NS(=O)(=O)N4CCCC4)CC[C@@H]23)[C@@]2(C)CCCC[C@@H]12 [5-11]	C (100%<efficacy <=300%)	1 to 10 µM	> 100 µM											0.030	MRGPRX4 activation, fluorescence change (dF/F0), Average (MRGPRX4; Conc. (Log[M]) −4): 0.057; MRGPRX4 activation, fluorescence change (dF/F0), Average (MRGPRX4; Conc. (Log[M]) −5): 0.033; MRGPRX4 activation, fluorescence change (dF/F0), Average (MRGPRX4; Conc. (Log[M]) −5.5): 0.013; MRGPRX4 activation, fluorescence change (dF/F0), Average (MRGPRX4; Conc. (Log[M]) −6): 0.023; MRGPRX4 activation, fluorescence change (dF/F0), Average (MRGPRX4; Conc. (Log[M]) −7): 0.067
CC[C@H]1[C@@H](O)[C@@H]2[C@H](CC[C@]3(C)[C@@H]([C@H](C)CCNC(=O)NS(=O)(=O)c4ccc5c(c4)CCC(C)(C)O5)CC[C@@H]23)[C@@]2(C)CCCC[C@@H]12 [5-29]	A (efficacy >400%)	< 1 µM	> 100 µM	0.014	0.014	0.010	0.018	0.016	0.018	0.018	0.016	0.020	0.018		
CC[C@H]1[C@@H](O)[C@@H]2[C@H](CC[C@]3(C)[C@@H]([C@H](C)CCNS(=O)(=O)C[C@]45CC[C@H](CC4=O)C5(C)C)CC[C@@H]23)[C@@]2(C)CCCC[C@@H]12 [6-3]	C (100%<efficacy <=300%)	1 to 10 µM	> 100 µM	0.016	0.008	0.020	0.016	0.018	0.018	0.011	0.018	0.020	0.013		
